Reference: patent US11377447B2, “Targeted therapeutics” (MADRIGAL PHARMACEUTICALS, INC., priority 2017, dated 2022)

Assay: pH of reconstituted and diluted drug product solution
Type: physicochemical
Conditions: lyophilized powder reconstituted with Water for Injection
Method: This solution is filled to deliver 105 mg/vial into a container closure system consisting of a USP Type 1 clear glass vial, stopper, and overseal. The drug product is stored at 2° C. to 8° C., away from light. Prior to administration the lyophilized powder is reconstituted with Water for Injection and then is further diluted in 0.9% Sodium Chloride Injection, USP to the target concentration prior to use. SDC-TRAP-0063 Sodium may have a concentration of between about 25 to about 50 mg/mL, between about 50 to about 100 mg/mL, between about 100 to about 150 mg/mL, or between about 150 to 200 mg/mL. The drug product is intended for intravenous administration by infusion.
The reconstituted solution of SDC-TRAP-0063 Sodium has a pH of 10.0. This solution is diluted to the target dose in 0.9% sodium chloride injection, USP. The pH of the infusion solution depends on the concentration of SDC-TRAP-0063 Sodium in the diluted infusion solution. Across the dose ranges employed in the clinical study protocol, the volume of the diluted infusion solution administered will range from 50 to 500 mL, and the pH will range from 8.1 to 9.6. In order to reduce the potential risks of injection site pain and/or damage to the venous endothelium during IV administration, a central venous access line is used for administration of the diluted SDC-TRAP-0063 Sodium.

For `CCc1c2c(nc3ccc(OC(=O)N4CCC(CCn5ccc6cc(-n7c(O)nnc7-c7cc(C(C)C)c(O)cc7O)ccc65)CC4)cc13)-c1cc([C@@](O)(CC)C(=O)[O-])c(CO)c(=O)n1C2.[Na+]` [SDC-TRAP-0063 Sodium, Sodium (S)-2-(2-((4-(2-(5-(3-(2,4-dihydroxy-5-isopropylphenyl)-5-hydroxy-4H-1,2,4-triazol-4-yl)-1H-indol-1-yl)ethyl)piperidine-1-carbonyl)oxy)-12-ethyl-8-(hydroxymethyl)-9-oxo-9,11-dihydroindolizino[1,2-b]quinolin-7-yl)-2-hydroxybutanoate], the “pH of the reconstituted solution” value was 10.0.
